Patent US9850283B2, “Macrocyclic inhibitors of the PD-1/PD-L1 and CD80(B7-1)/PD-L1 protein/protein interactions” (BRISTOL-MYERS SQUIBB COMPANY, priority 2013, dated 2017)
Like-named read-outs stand apart in the source and are kept apart here. Positions of bridges follow the written chain, without caps; N, C: chain ends. Non-standard residues stand in square brackets, D forms with d. Residues, ends and D or L forms follow the SMILES beside them. ξ: configuration not given here. *: point of attachment. Phe(3,4,5-F3) = N[C@@H](Cc1cc(F)c(F)c(F)c1)C(=O)O; Pro(4R-Bn) = O=C(O)[C@@H]1C[C@@H](Cc2ccccc2)CN1; Phe(2-Cl) = N[C@@H](Cc1ccccc1Cl)C(=O)O; Pro(4R-NH2) = N[C@H]1CN[C@H](C(=O)O)C1; Bta = N[C@@H](Cc1csc2ccccc12)C(=O)O; Hyp = O=C(O)[C@@H]1C[C@@H](O)CN1; NMeF = CN[C@@H](Cc1ccccc1)C(=O)O; NMeNle = CCCC[C@H](NC)C(=O)O; NMeS = CN[C@@H](CO)C(=O)O; NMeA = CN[C@@H](C)C(=O)O; Orn = NCCC[C@H](N)C(=O)O; Dab = NCC[C@H](N)C(=O)O; dAze = O=C(O)[C@H]1CCN1; Dap = NC[C@H](N)C(=O)O; Bn = c1ccc(C*)cc1; ξC = NC(CS)C(=O)O; Sar = CNCC(=O)O

Assays:
Human PD-L1/PD-1 = molecular target: T1, Human PD-L1/PD-1 (Homo sapiens, UniProt Q9NZQ7); experiment: HTRF PD-1-Ig/PD-L1-His binding assay (human PD-L1); settings: cluster symbol; read-out: HTRF IC50 cluster
T1 construct: made in house; host or cells: HEK293T
How it was run: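 Readout: time-resolved FRET between Eu cryptate-labeled anti-Ig (1 nM final) and APC-labeled anti-His (20 nM final) antibodies. These detect interaction of Fc-fused PD-1 with His-tagged human PD-L1 in dPBS containing 0.1% BSA and 0.05% Tween-20.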

[1] = molecular target: T2, LK35.2-hPD-L1 cells / PE-labeled PD-1-Ig (Homo sapiens, UniProt Q9NZQ7); experiment: LK35.2-hPD-L1 cell binding high-content screening assay; assay type: cell-based; settings: cluster symbol, read-out: CBA IC50 cluster
T2 construct: expressed in transfected cells; host or cells: LK35.2 mouse B cell line
How it was run: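 Mouse LK35.2 B cells stably overexpressing human PD-L1 were cultured overnight in RPMI with 10% FCS, then given compound and PE-labeled human PD-1-Ig (1 nM final) for 1 h at 37 °C. After three dPBS washes, bound fluorescence was quantified by high-content imaging.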

[2] = cell binding assay, cell line not given
[3] = cell line of CBA not given (LK35.2-hPD-L1 or 293T-hPD-L1)

T1 sequence (Q9NZQ7 with tags, fused parts or gaps): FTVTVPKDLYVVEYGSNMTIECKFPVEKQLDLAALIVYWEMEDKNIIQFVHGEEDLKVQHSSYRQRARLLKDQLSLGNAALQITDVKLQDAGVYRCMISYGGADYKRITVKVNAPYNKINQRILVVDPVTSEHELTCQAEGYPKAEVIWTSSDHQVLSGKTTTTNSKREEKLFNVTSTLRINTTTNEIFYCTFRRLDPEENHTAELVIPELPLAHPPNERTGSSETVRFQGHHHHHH
T2 sequence (Q9NZQ7 19-290): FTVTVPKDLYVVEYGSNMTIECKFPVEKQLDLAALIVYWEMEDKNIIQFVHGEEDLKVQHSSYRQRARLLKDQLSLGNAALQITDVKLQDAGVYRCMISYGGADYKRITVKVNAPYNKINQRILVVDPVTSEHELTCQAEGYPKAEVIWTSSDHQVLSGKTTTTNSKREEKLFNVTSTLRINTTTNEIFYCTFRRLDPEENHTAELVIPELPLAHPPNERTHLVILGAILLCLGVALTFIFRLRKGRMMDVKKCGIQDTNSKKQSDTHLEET

SMILES	IC50 (Human PD-L1/PD-1) [nM]	IC50 [1, 2] [nM]	IC50 [1, 3] [nM]
CCCC[C@H]1C(=O)N(C)[C@@H](CCCC)C(=O)N[C@@H](CCN)C(=O)N[C@H](C(=O)NCC(N)=O)CSCC(=O)N[C@@H](Cc2ccc(O)cc2)C(=O)N(C)[C@@H](C)C(=O)N[C@@H](CC(N)=O)C(=O)N2CCC[C@H]2C(=O)N[C@@H](Cc2c[nH]cn2)C(=O)N[C@@H](CCC(=O)O)C(=O)N2C[C@H](Cc3ccccc3)C[C@H]2C(=O)N[C@@H](Cc2c[nH]c3ccccc23)C(=O)N[C@@H](CCN)C(=O)N[C@@H](Cc2c[nH]c3ccccc23)C(=O)N1C [Example 13007] ({CH2CO}-Y[NMeA]NPHE[Pro(4R-Bn)]W[Dab]W[NMeNle][NMeNle][Dab]CG-NH2; thioether N-14)	0.385 to 6.74	0.158 to 4.71	–
CCCC[C@H]1C(=O)N(C)CC(=O)N[C@@H](CC(=O)O)C(=O)N[C@@H](C(C)C)C(=O)N(C)[C@@H](Cc2ccccc2)C(=O)N[C@@H](Cc2ccc(O)cc2)C(=O)N(C)CC(=O)N[C@@H](Cc2c[nH]c3ccccc23)C(=O)N[C@@H](Cc2ccc(O)cc2)C(=O)N2CCC[C@H]2C(=O)N[C@H](C(=O)NCC(N)=O)CSCC(=O)N[C@@H](Cc2ccccc2)C(=O)N(C)[C@@H](Cc2ccccc2)C(=O)N1C [Example 3561] (HELM PEPTIDE1{[O=C(C[*:3])[*:2]].F.[meF].[CCCC[C@@H](C(=O)[*:2])N(C)[*:1]].[Sar].D.V.[meF].Y.[Sar].W.Y.P.C.G.[am]}$PEPTIDE1,PEPTIDE1,1:R3-14:R3$$$V2.0)	> 30.5	> 74.3	–
CCCC[C@H]1C(=O)N(C)[C@@H](CCCC)C(=O)N[C@@H](CCCN)C(=O)N[C@H](C(=O)NCC(N)=O)CSCC(=O)N[C@@H](Cc2ccc(O)cc2)C(=O)N(C)[C@@H](C)C(=O)N[C@@H](CC(N)=O)C(=O)N2CCC[C@H]2C(=O)N[C@@H](CN)C(=O)N[C@@H](CC(C)C)C(=O)N2C[C@H](OCc3ccccc3)C[C@H]2C(=O)N[C@@H](Cc2c[nH]c3ccccc23)C(=O)N[C@@H](CO)C(=O)N[C@@H](Cc2c[nH]c3ccccc23)C(=O)N1C [Example 14003] ({CH2CO}-Y[NMeA]NP[Dap]L[Hyp](Bn)WSW[NMeNle][NMeNle][Orn]CG-NH2; thioether N-14)	0.385 to 6.74	0.158 to 4.71	–
CCCC[C@H]1C(=O)N(C)CC(=O)N[C@@H](CC(=O)O)C(=O)N[C@@H](C(C)C)C(=O)N(C)[C@@H](Cc2ccccc2)C(=O)N[C@@H](Cc2ccc(O)cc2)C(=O)N(C)CC(=O)N[C@@H](Cc2c[nH]c3ccccc23)C(=O)N[C@@H](Cc2ccc(O)cc2)C(=O)N[C@@H](CC(C)C)C(=O)N[C@H](C(=O)NCC(N)=O)CSCC(=O)N[C@@H](Cc2ccccc2Cl)C(=O)N(C)[C@@H](Cc2ccccc2)C(=O)N1C [Example 3104] ({CH2CO}-[Phe(2-Cl)][NMeF][NMeNle][Sar]DV[NMeF]Y[Sar]WYLCG-NH2; thioether N-13)	> 30.5	–	> 74.3
CCCC[C@H]1C(=O)N(C)[C@@H](COCC)C(=O)N[C@@H](CCCNC(=N)N)C(=O)NC(C(=O)NCC(N)=O)CSCC(=O)N[C@@H](Cc2ccc(O)cc2)C(=O)N(C)[C@@H](C)C(=O)N[C@@H](CC(N)=O)C(=O)N2CCC[C@H]2C(=O)N[C@@H](Cc2cnc[nH]2)C(=O)N[C@@H](CC(C)C)C(=O)N2C[C@H](O)C[C@H]2C(=O)N[C@@H](Cc2c[nH]c3ccccc23)C(=O)N[C@@H](CO)C(=O)N[C@@H](Cc2csc3ccccc23)C(=O)N1C (stereo partly shown) [Example 9042] ({CH2CO}-Y[NMeA]NPHL[Hyp]WS[Bta][NMeNle][NMeS](Et)R[ξC]G-NH2; thioether N-14)	0.385 to 6.74	0.158 to 4.71	–
CCCC[C@H]1C(=O)N(C)CC(=O)N[C@@H](CC(=O)O)C(=O)N[C@@H](Cc2ccccc2)C(=O)N(C)[C@@H](Cc2ccccc2)C(=O)N[C@@H](Cc2ccc(O)cc2)C(=O)N(C)CC(=O)N[C@@H](Cc2c[nH]c3ccccc23)C(=O)N[C@@H](Cc2ccc(O)cc2)C(=O)N[C@@H](CC(C)C)C(=O)N[C@H](C(=O)NCC(N)=O)CSCC(=O)N[C@@H](Cc2ccccc2)C(=O)N(C)[C@@H](Cc2ccccc2)C(=O)N1C [Example 3543] (HELM PEPTIDE1{[O=C(C[*:3])[*:2]].F.[meF].[CCCC[C@@H](C(=O)[*:2])N(C)[*:1]].[Sar].D.F.[meF].Y.[Sar].W.Y.L.C.G.[am]}$PEPTIDE1,PEPTIDE1,1:R3-14:R3$$$V2.0)	> 30.5	> 74.3	–
CCCC[C@H]1C(=O)N2CCC[C@@H]2C(=O)N2C[C@H](N)C[C@H]2C(=O)N[C@@H](C(C)C)C(=O)N(C)[C@@H](Cc2ccccc2)C(=O)N[C@@H](Cc2ccc(O)cc2)C(=O)N2CC[C@@H]2C(=O)N[C@@H](Cc2c[nH]c3ccccc23)C(=O)N[C@@H](Cc2ccc(O)cc2)C(=O)N[C@@H](CC(C)C)C(=O)N[C@H](C(=O)NCC(N)=O)CSCC(=O)N[C@@H](Cc2cc(F)c(F)c(F)c2)C(=O)N(C)[C@@H](Cc2ccccc2)C(=O)N1C [Example 3192] ({CH2CO}-[Phe(3,4,5-F3)][NMeF][NMeNle][dP][Pro(4R-NH2)]V[NMeF]Y[dAze]WYLCG-NH2; thioether N-13)	0.385 to 6.74	–	0.158 to 4.71
CCCC[C@H]1C(=O)N(C)[C@@H](CCCC)C(=O)N[C@@H](CCCNC(=N)N)C(=O)N[C@H](C(=O)NCC(N)=O)CSCC(=O)N[C@@H](Cc2ccc(O)cc2)C(=O)N(C)[C@@H](C)C(=O)N[C@@H](CC(N)=O)C(=O)N2CCC[C@H]2C(=O)N[C@@H](CN)C(=O)N[C@@H](CC(C)C)C(=O)N2C[C@H](O)C[C@H]2C(=O)N[C@@H](Cc2c[nH]c3ccccc23)C(=O)N[C@@H](CC(=O)O)C(=O)N[C@@H](Cc2c[nH]c3ccccc23)C(=O)N1C [Example 5057] ({CH2CO}-Y[NMeA]NP[Dap]L[Hyp]WDW[NMeNle][NMeNle]RCG-NH2; thioether N-14)	6.76 to 30.3	4.78 to 72.9	–
CCCC[C@H]1C(=O)N(C)[C@@H](CO)C(=O)N[C@@H](CCCNC(=N)N)C(=O)NC(C(=O)NCC(N)=O)CSCC(=O)N[C@@H](Cc2ccc(O)cc2)C(=O)N(C)[C@@H](C)C(=O)N[C@@H](CC(N)=O)C(=O)N2CCC[C@H]2C(=O)N[C@@H](Cc2cnc[nH]2)C(=O)N[C@@H](CC(C)C)C(=O)N2C[C@H](O)C[C@H]2C(=O)N[C@@H](Cc2c[nH]c3ccccc23)C(=O)N[C@@H](CO)C(=O)N[C@@H](Cc2c[nH]c3ccccc23)C(=O)N1C (stereo partly shown) [Example 9034]	6.76 to 30.3	4.78 to 72.9	–
CCCC[C@H]1C(=O)N(C)[C@@H](C)C(=O)N[C@@H](CCCNC(=N)N)C(=O)NC(C(=O)NCC(N)=O)CSCC(=O)N[C@@H](Cc2ccc(O)cc2)C(=O)N(C)[C@@H](C)C(=O)N[C@@H](CC(N)=O)C(=O)N2CCC[C@H]2C(=O)N[C@@H](Cc2cnc[nH]2)C(=O)N[C@@H](CC(C)C)C(=O)N2C[C@H](O)C[C@H]2C(=O)N[C@@H](Cc2c[nH]c3ccccc23)C(=O)N[C@@H](CO)C(=O)N[C@@H](Cc2csc3ccccc23)C(=O)N1C (stereo partly shown) [Example 9058] ({CH2CO}-Y[NMeA]NPHL[Hyp]WS[Bta][NMeNle][NMeA]R[ξC]G-NH2; thioether N-14)	0.385 to 6.74	0.158 to 4.71	–
CCCC[C@H]1C(=O)N(C)CC(=O)N[C@@H](CC)C(=O)N[C@@H](C(C)C)C(=O)N(C)[C@@H](Cc2ccccc2)C(=O)N[C@@H](Cc2ccc(O)cc2)C(=O)N(C)CC(=O)N[C@@H](Cc2c[nH]c3ccccc23)C(=O)N[C@@H](Cc2ccc(O)cc2)C(=O)N[C@@H](CC(C)C)C(=O)N[C@H](C(=O)NCC(N)=O)CSCC(=O)N[C@@H](Cc2ccccc2)C(=O)N(C)[C@@H](Cc2ccccc2)C(=O)N1C [Example 3146] (HELM PEPTIDE1{[O=C(C[*:3])[*:2]].F.[meF].[CCCC[C@@H](C(=O)[*:2])N(C)[*:1]].[Sar].[Abu].V.[meF].Y.[Sar].W.Y.L.C.G.[am]}$PEPTIDE1,PEPTIDE1,1:R3-14:R3$$$V2.0)	> 30.5	–	4.78 to 72.9
